Measurements: patent US10093679B2, “Amino sulfonyl-based compounds, the preparation method therefor and use thereof” (SUZHOU VIGONVITA LIFE SCIENCES CO., LTD., priority 2014, dated 2018)
Where two headings read alike, the source gives them in different places.

Tests used:
[1] = system: maximal electroshock seizure; assay: Maximal electroshock seizure (MES) test on mice; type: in vivo; conditions: 100 mg/kg intragastric
Source text: The Maximal Electroshock Seizure Test on Mice
MES (maximal electroshock seizure test) was used to evaluate whether the compounds have an effect against […] and thus to make preliminary evaluation of the efficacy of each compound in treating epilepsy. Multipurpose instrument for pharmacological and biological experiments (mode, YSD-4G) was used to conduct experiments under the condition of convulsive mode, 115V of stimulation voltage, 250 ms of stimulation time, 50 HZ AC voltage. Positive and negative electrodes were used to clamp the left and right ear of the mice, respectively, which were wetted by normal saline. The tonic hind limb extension seizure after stimulation was deemed as judgment standard of grand mal. The mice were randomly divided into groups. The compounds were given by intragastric administration based on the dose of 100 mg/kg.

[2] = Influence on rats' serum total cholesterol and triglyceride; type: in vivo, SD rats; set-up: total cholesterol / triglyceride: unit not given here; conditions: for total cholesterol / triglyceride: rats' serum, 5 weeks after administration
Experimental: Study on the Influence of the Compounds on the Rats' Total Cholesterol and Triglyceride
50 male SD rats with weight of 180˜200 g were randomly divided into groups with 8 in each group. […] 5 weeks after administration, the level of total cholesterol and triglyceride in rats' serum were determined and the results were shown in table 2.

[3] = system: maximal electroshock seizure; conditions: literature value, cited from earlier work
[4] = target: T1, Human carbonic anhydrase II (CA-II) (Homo sapiens, UniProt P00918); assay: Inhibiting effect on carbonic anhydrase (CO2 hydration, bromothymol blue colour change); type: biochemical
T1 construct: purchased Sigma
Experimental: Preparation Method of the Reagent
Chromogenic Buffer Solution:
HEPES was dissolved in distilled water to prepare a solution with a concentration of 10 mM; the pH was adjusted to 7.7 with 1 M Tris at 23° C.; bromothymol blue was dissolved in HEPES buffer solution with pH 7.7 to a concentration of 50 mg/L;
Saturated CO2-ice water was prepared by adding dry ice into icy distilled water.
Solution of CA-II enzyme was prepared into a concentration of 2 m/ml, and stored at −20° C.
Tested sample was prepared by using distilled water as solvent with various concentrations.
The time required for changing into yellow was recorded. The time required for the blank tube was recorded as t0, the time required for the standard tube was recorded as ts and the time required for the test tube was recorded as t. (t0−ts)/ts was normal activity of enzyme, and (t0−t)/t was the activity after affecting by the test compound.

Compound	Inhibition rate of epileptic seizure ([1]; 0.5 h after administration) [%]	Inhibition rate of epileptic seizure ([1]; 1.5 h after administration) [%]	Inhibition rate of epileptic seizure ([1]; 2 h after administration) [%]	further results
CC1(C)O[C@@H]2[C@@H](CO[C@@]3(COS(N)(=O)=O)OC(C)(C)O[C@@H]23)O1 [Topiramate, reference compound]	37.5	37.5		total cholesterol ([2]; 40 mg/kg intragastric): 1.56 ± 0.19; triglyceride ([2]; 40 mg/kg intragastric): 1.45 ± 0.34
NS(=O)(=O)NCc1csc2ccccc12 [JNJ-26990990]				Inhibition rate of epileptic seizure ([3]; 0.5 h): 20%; Inhibition rate of epileptic seizure ([3]; 2 h): 60%
NS(=O)(=O)NCc1noc2cc(F)ccc12 [Example 2, N-[(6-fluoro-benzo[d]isoxazol-3-yl)methyl]-sulfamide]			33.3	
NS(=O)(=O)NCc1noc2ccccc12 [Example 3, N-[(benzo[d]isoxazol-3-yl)methyl]-sulfamide]	88.9	66.7	77.8	IC50 [4]: 154 µM; inhibiting effect on carbonic anhydrase compared with reference drugs (in words) [4]: poorer inhibiting effect than topiramate and zonisamide; total cholesterol ([2]; 20 mg/kg intragastric): 1.64 ± 0.28; triglyceride ([2]; 20 mg/kg intragastric): 1.13 ± 0.24; total cholesterol ([2]; 40 mg/kg intragastric): 1.53 ± 0.17; triglyceride ([2]; 40 mg/kg intragastric): 0.99 ± 0.16; total cholesterol ([2]; 80 mg/kg intragastric): 1.32 ± 0.21; triglyceride ([2]; 80 mg/kg intragastric): 0.84 ± 0.06; effect on the level of total cholesterol and triglyceride (in words) ([2]; rats' serum, 20, 40, 80 mg/kg, 5 weeks): significantly decrease
NS(=O)(=O)Cc1noc2ccccc12 [Zonisamide, reference compound]	33.3	16.7	16.7	
NS(=O)(=O)NCc1ccsc1Cl [Example 13, N-[(2-chloro-3-thienyl)methyl]-sulfamide]	37.5			
NS(=O)(=O)NCc1noc2cc(Cl)ccc12 [Example 1, N-[(6-chloro-benzo[d]isoxazol-3-yl)methyl]-sulfamide]	66.7		50	
CN(C)S(=O)(=O)NCc1noc2ccccc12 [Example 9, N-[(benzo[d]isoxazol-3-yl)methyl]-N′,N′-dimethyl-sulfamide]	44.4		11.1	
